In ChEMBL document CHEMBL5137135, “Highly Oxidized Germacranolides from Elephantopus tomentosus and the Configurational Revision of Some Previously Reported Analogues” (J Nat Prod, 2022):
Active and inactive are the calls of the source. The rule behind the calls is not given here.

Tests used:
Format in all cases: functional, cell-based
HepG2 [1] = test: Cytotoxicity against human HepG2 cells assessed as inhibition of cell growth by MTT assay
Hep 3B2 [2] = test: Cytotoxicity against human Hep3B cells assessed as inhibition of cell growth by MTT assay
HepG2 [3] = test: Induction of apoptosis in human HepG2 cells assessed as membrane blebbing at 1 to 4 uM after 48 hrs by phase contrast microscopic analysis; settings: dose 1-4 µM
Hep 3B2 [4] = test: Induction of apoptosis in human Hep3B cells assessed as membrane blebbing at 1 to 4 uM after 48 hrs by phase contrast microscopic analysis; settings: dose 1-4 µM
HepG2 [5] = test: Induction of apoptosis in human HepG2 cells assessed as cellular shrinkage at 1 to 4 uM after 48 hrs by phase contrast microscopic analysis; settings: dose 1-4 µM
Hep 3B2 [6] = test: Induction of apoptosis in human Hep3B cells assessed as cellular shrinkage at 1 to 4 uM after 48 hrs by phase contrast microscopic analysis; settings: dose 1-4 µM
HepG2 [7] = test: Induction of apoptosis in human HepG2 cells at 1 to 4 uM after 48 hrs by Hoechst 33258 staining based assay; settings: dose 1-4 µM
Hep 3B2 [8] = test: Induction of apoptosis in human Hep3B cells at 1 to 4 uM after 48 hrs by Hoechst 33258 staining based assay; settings: dose 1-4 µM
HepG2 [9] = test: Induction of mitochondrial membrane potential loss in human HepG2 cells by JC-1 staining based fluorescence assay
Hep 3B2 [10] = test: Induction of mitochondrial membrane potential loss in human Hep3B cells by JC-1 staining based fluorescence assay

For C=C(C)C(=O)O[C@H]1C/C(C)=C\[C@@]2(c3cccc(O)c3O)C=C(C)[C@@H](O2)[C@H]2OC(=O)C(=C)[C@@H]21, the IC50 (HepG2 [1]) was 4.3 µM and the IC50 (Hep 3B2 [2]) was 5.6 µM.

For C=C1C[C@H](OC(=O)/C(C)=C/C)[C@H]2C(=C)C(=O)O[C@@H]2[C@@H]2O[C@](OC)(C=C2C)C1, the IC50 (HepG2 [1]) was 3.8 µM and the IC50 (Hep 3B2 [2]) was 8.5 µM.

In the case of C/C=C(\C)C(=O)O[C@H]1C/C(C)=C\[C@@]2(OC)C=C(C)[C@@H](O2)[C@H]2OC(=O)[C@@H](CO)[C@@H]21, the IC50 (HepG2 [1]) is reported as greater than 10 µM and the IC50 (Hep 3B2 [2]) is reported as greater than 10 µM.

C=C1C[C@H](OC(=O)/C(C)=C/C)[C@H]2C(=C)C(=O)O[C@@H]2[C@@H]2O[C@@](O)(C1)C[C@@]2(C)O was tested, and the IC50 (HepG2 [1]) was 8.7 µM and the IC50 (Hep 3B2 [2]) was 3.1 µM.

In the case of C=C1C(=O)O[C@H]2[C@H]1[C@@H](OC(=O)/C(C)=C/C)C/C(C)=C\[C@@]1(c3cccc(O)c3O)C=C(C)[C@H]2O1, the IC50 (HepG2 [1]) is reported as 4.5 µM and the IC50 (Hep 3B2 [2]) is reported as 5.8 µM.

C=C1C(=O)O[C@H]2[C@H]1[C@@H](OC(=O)/C(C)=C/C)C/C(C)=C\[C@@]1(c3ccc(O)c(O)c3)C=C(C)[C@H]2O1 showed an IC50 (HepG2 [1]) of 3 µM and an IC50 (Hep 3B2 [2]) of 3.6 µM.

C=C1C(=O)O[C@H]2[C@H]1[C@@H](OC(=O)/C(C)=C/C)C/C(C)=C\[C@@]1(OC)C=C(C)[C@H]2O1 gave an IC50 (HepG2 [1]) of 9.7 µM and an IC50 (Hep 3B2 [2]) of 5 µM.

C/C=C(/C)C(=O)O[C@H]1C/C(C)=C\[C@@]2(OC)C=C(C)[C@@H](O2)[C@H]2OC(=O)[C@@H](COC)[C@@H]21 gave an IC50 (HepG2 [1]) greater than 10 µM and an IC50 (Hep 3B2 [2]) greater than 10 µM.

For C=C1C[C@H](OC(=O)C(=C)C)[C@H]2C(=C)C(=O)O[C@@H]2[C@@H]2O[C@](OC)(C=C2C)C1, the IC50 (HepG2 [1]) was 2.2 µM, the IC50 (Hep 3B2 [2]) was 2.4 µM and the Activity (HepG2 [3]) was “Active”. For the same compound, the Activity (Hep 3B2 [4]) was “Active”, the Activity (HepG2 [5]) was “Active” and the Activity (Hep 3B2 [6]) was “Active”. For the same compound, the Activity (HepG2 [7]) was “Active”, the Activity (Hep 3B2 [8]) was “Active” and the Activity (HepG2 [9]) was “Active”. For the same compound, the Activity (Hep 3B2 [10]) was “Active”.

C=C1C[C@H](OC(=O)C(=C)C)[C@H]2C(=C)C(=O)O[C@@H]2[C@@H]2O[C@@](O)(C1)C[C@@]2(C)O gave an IC50 (HepG2 [1]) of 7.3 µM and an IC50 (Hep 3B2 [2]) of 6.6 µM.

For C=C(C)C(=O)O[C@H]1C/C(C)=C\[C@@]2(OC)C=C(C)[C@@H](O2)[C@H]2OC(=O)[C@@H](COC)[C@@H]21, the IC50 (HepG2 [1]) was greater than 10 µM and the IC50 (Hep 3B2 [2]) was greater than 10 µM.

For C=C1C(=O)O[C@H]2[C@H]1[C@@H](OC(=O)/C(C)=C\C)C/C(C)=C\[C@@]1(OC)C=C(C)[C@H]2O1, the IC50 (HepG2 [1]) was 3.5 µM and the IC50 (Hep 3B2 [2]) was 3.8 µM.

In the case of C=C(C)C(=O)O[C@H]1C/C(C)=C\[C@@]2(c3ccc(O)c(O)c3)C=C(C)[C@@H](O2)[C@H]2OC(=O)C(=C)[C@@H]21, the IC50 (HepG2 [1]) is reported as 5.7 µM and the IC50 (Hep 3B2 [2]) is reported as 3.7 µM.

C=C1C[C@H](OC(=O)C(=C)C)[C@H]2C(=C)C(=O)O[C@@H]2[C@@H]2O[C@@](O)(C1)C[C@@]2(C)OC showed an IC50 (HepG2 [1]) of 8.5 µM and an IC50 (Hep 3B2 [2]) of 7.5 µM.

C=C(C)C(=O)O[C@H]1C/C(C)=C\[C@@]2(OC)C=C(C)[C@@H](O2)[C@H]2OC(=O)C(=C)[C@@H]21 was tested, and the IC50 (HepG2 [1]) was 3.8 µM and the IC50 (Hep 3B2 [2]) was 8.5 µM.

C=C1C[C@H](OC(=O)/C(C)=C/C)[C@H]2C(=C)C(=O)O[C@@H]2[C@@H]2O[C@@](OC)(C1)C[C@@]2(C)O gave an IC50 (HepG2 [1]) of 9.8 µM and an IC50 (Hep 3B2 [2]) of 9.5 µM.

In the case of C=C1C[C@H](OC(=O)C(=C)C)[C@H]2C(=C)C(=O)O[C@@H]2[C@@H]2O[C@@](OC)(C1)C[C@@]2(C)O, the IC50 (HepG2 [1]) is reported as 8.1 µM and the IC50 (Hep 3B2 [2]) is reported as 2.4 µM.
